Where a name gives a salt, the structure may show the parent alone.
These compounds were tested against T1, PPARδ (Homo sapiens, UniProt Q03181) (assay: Transactivation assay (PPARδ GAL4 assay) in transiently transfected HEK293 cells). Conditions: luciferase reporter, Table 1.
T1 construct: fused to amino acids 147-441 of PPARδ downstream of CMV promoter; expressed in transfected cells; host or cells: HEK293 cells, transiently transfected with pFACMV-PPARδ using Fugene
T1 sequence (Q03181 147-441): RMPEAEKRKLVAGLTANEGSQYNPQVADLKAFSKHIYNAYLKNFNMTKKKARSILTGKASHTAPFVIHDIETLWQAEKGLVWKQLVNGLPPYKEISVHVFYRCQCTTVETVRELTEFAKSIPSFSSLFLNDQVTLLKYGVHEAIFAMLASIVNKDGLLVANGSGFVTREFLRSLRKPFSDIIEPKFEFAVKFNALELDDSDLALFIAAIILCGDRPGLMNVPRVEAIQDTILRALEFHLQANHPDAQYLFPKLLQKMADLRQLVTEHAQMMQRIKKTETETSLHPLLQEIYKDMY
Type: cell-based
In short: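 HEK293 cells transiently co-transfected with GAL4 DBD (aa 1-147)–PPARδ (aa 147-441) fusion and 5×GAL4-luciferase reporter, then exposed 24 h to compound (final 0-30 μM) in OptiMEM at 37° C. Luminescence read; activity as percent of GW501516 control, EC50 from sigmoidal dose-response fit.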

SMILES | EC50 [nM]
CCc1cc(C(=O)c2ccc(OC(F)(F)F)cc2)c(NC(=O)CNC(C)(C)C(=O)O)s1 [Example 76, 2-({[5-Ethyl-3-(4-trifluoromethoxy-benzoyl)-thiophen-2-ylcarbamoyl]-methyl}-amino)-2-methyl-propionic acid] | < 100
CCc1cc(C(=O)c2ccccc2)c(NC(=O)CSC(C)(C)C(=O)O)s1 [Example 15, 2-[(3-Benzoyl-5-ethyl-thiophen-2-ylcarbamoyl)-methylsulfanyl]-2-methyl-propionic acid] | 1000 to 30000
CCc1cc(C(=O)c2ccc(OC)cc2)c(NC(=O)CCCCC(=O)O)s1 [Example 69, 5-[5-Ethyl-3-(4-methoxy-benzoyl)-thiophen-2-ylcarbamoyl]-pentanoic acid] | 1000 to 30000
CCc1cc(C(=O)c2cccc(Cl)c2)c(NC(=O)CSCC(=O)O)s1 [Example 27, {[3-(3-Chloro-benzoyl)-5-ethyl-thiophen-2-ylcarbamoyl]-methylsulfanyl}-acetic acid] | 100 to 1000
CCc1cc(C(=O)c2ccc(OC)cc2)c(NC(=O)CN(C)CC(=O)O)s1 [Example 73, ({[5-Ethyl-3-(4-methoxy-benzoyl)-thiophen-2-ylcarbamoyl]-methyl}-methyl-amino)-acetic acid hydrochloride] | 1000 to 30000
CCc1cc(C(=O)c2ccc(C(F)(F)F)nc2)c(NC(=O)CSCC(=O)O)s1 [Example 57, {[5-Ethyl-3-(6-trifluoromethyl-pyridine-3-carbonyl)-thiophen-2-ylcarbamoyl]-methylsulfanyl}-acetic acid] | 1000 to 30000
CCc1cc(C(=O)c2cccc(Br)c2)c(NC(=O)CSCC(=O)O)s1 [Example 34, {[3-(3-Bromo-benzoyl)-5-ethyl-thiophen-2-ylcarbamoyl]-methylsulfanyl}-acetic acid] | 100 to 1000
CCc1cc(C(=O)c2cccc(OC)c2)c(NC(=O)CSCC(=O)O)s1 [Example 48, {[5-Ethyl-3-(3-methoxybenzoyl)-thiophen-2-ylcarbamoyl]-methylsulfanyl}-acetic acid] | 1000 to 30000

Other lines, results leading:

EC50 [nM] | SMILES
1000 to 30000 | CCc1cc(C(=O)c2ccc(OC)cc2)c(NC(=O)CSc2ccc(OCC(=O)O)c(C)c2)s1 [Example 91, (4-{[5-Ethyl-3-(4-methoxy-benzoyl)-thiophen-2-ylcarbamoyl]-methylsulfanyl}-2-methyl-phenoxy)-acetic acid]
100 to 1000 | CCc1cc(C(=O)c2ccc(OC(F)(F)F)cc2)c(NC(=O)c2cccc(OCC(=O)O)c2)s1 [Example 100, {3-[5-Ethyl-3-(4-trifluoromethoxy-benzoyl)-thiophen-2-ylcarbamoyl]-phenoxy}-acetic acid]
< 100 | CCc1cc(C(=O)c2ccc(OC(F)(F)F)cc2)c(NC(=O)CN[C@H](C(=O)O)C(C)C)s1 [Example 79, (S)-2-({[5-Ethyl-3-(4-trifluoromethoxy-benzoyl)-thiophen-2-ylcarbamoyl]-methyl}-amino)-3-methyl-butyric acid]
100 to 1000 | CCc1cc(C(=O)c2ccc(OC(F)(F)F)cc2)c(NC(=O)CSc2ccc(CCC(=O)O)cc2)s1 [Example 96, 3-(4-{[5-Ethyl-3-(4-trifluoromethoxy-benzoyl)-thiophen-2-ylcarbamoyl]-methylsulfanyl}-phenyl)-propionic acid]
100 to 1000 | CCc1cc(C(=O)c2ccc(OC(F)(F)F)cc2)c(NC(=O)CNCC(=O)O)s1 [Example 81, ({[5-Ethyl-3-(4-trifluoromethoxy-benzoyl)-thiophen-2-ylcarbamoyl]-methyl}-amino)-acetic acid]

Same assay, conditions: luciferase reporter, Table 2

EC50 [nM] | SMILES
100 to 1000 | CCc1cc(C(=O)c2ccc(OC(F)(F)F)cc2)c(NC(=O)CN(CC)[C@@H](C)C(=O)O)s1 [Example 125, (S)-2-(Ethyl-{[5-ethyl-3-(4-trifluoromethoxy-benzoyl)-thiophen-2-ylcarbamoyl]-methyl}-amino)-propionic acid]
< 100 | CCc1cc(C(=O)c2ccc(OC(F)(F)F)cc2)c(NC(=O)CN2[C@@H](C(=O)O)CC[C@@H]2C(C)C)s1 [Example 185, (2R,5R)-1-{[5-Ethyl-3-(4-trifluoromethoxy-benzoyl)-thiophen-2-ylcarbamoyl]-methyl}-5-isopropyl-pyrrolidine-2-carboxylic acid]

Reference: patent US20100063065A1 (Inpharmatica Limited, priority 2005, published 2010)
